Experimental data: PubChem BioAssay AID248 (DTP/NCI, 2004)
Where “and” joins values, the source holds several entries; their conditions need not be identical. Equal entries are not always repeated. Inconclusive results and toxic doses are left out. No stated cut-off is given here; in the data, active means T/C of 150% or more; inactive means T/C below 125%.

Test system: L1210 leukemia ip in BDF1 mice, survival T/C
Assay: NCI In Vivo Anticancer Drug Screen. Data for tumor model L1210 Leukemia (intraperitoneal) in B6D2F1 (BDF1) mice
Details: endpoint: mean survival time, higher = longer survival
Outline: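 Value reflects the ratio of survival in compound-treated mice to survival in vehicle-treated controls, with both groups carrying the same transplanted tumor.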

[1] = dose: 100.0 mg/kg/injection, schedule: Q01DX001 (ip), vehicle: saline
[2] = dose: 200.0 mg/kg/injection, schedule: Q01DX001 (ip), vehicle: saline
[3] = dose: 400.0 mg/kg/injection, schedule: Q01DX001 (ip), vehicle: saline
[4] = dose: 50.0 mg/kg/injection, schedule: Q01DX009 (ip), vehicle: saline
[5] = dose: 100.0 mg/kg/injection, schedule: Q01DX009 (ip), vehicle: saline
[6] = dose: 200.0 mg/kg/injection, schedule: Q01DX009 (ip), vehicle: saline
[7] = dose: 100.0 mg/kg/injection, schedule: Q01DX001 (ip), vehicle: carboxymethylcellulose (CMC)
[8] = dose: 100.0 mg/kg/injection, schedule: Q04DX003 (ip), vehicle: Klucel (hydroxypropylcellulose) (HPC)
[9] = dose: 200.0 mg/kg/injection, schedule: Q01DX001 (ip), vehicle: carboxymethylcellulose (CMC)
[10] = dose: 200.0 mg/kg/injection, schedule: Q04DX003 (ip), vehicle: Klucel (hydroxypropylcellulose) (HPC)
[11] = dose: 400.0 mg/kg/injection, schedule: Q01DX001 (ip), vehicle: carboxymethylcellulose (CMC)
[12] = dose: 400.0 mg/kg/injection, schedule: Q04DX003 (ip), vehicle: Klucel (hydroxypropylcellulose) (HPC)
[13] = dose: 100.0 mg/kg/injection, schedule: Q04DX002 (ip), vehicle: Klucel (hydroxypropylcellulose) (HPC)
[14] = dose: 200.0 mg/kg/injection, schedule: Q04DX002 (ip), vehicle: Klucel (hydroxypropylcellulose) (HPC)
[15] = dose: 400.0 mg/kg/injection, schedule: Q04DX002 (ip), vehicle: Klucel (hydroxypropylcellulose) (HPC)
[16] = dose: 100.0 mg/kg/injection, schedule: Q01DX001 (ip), vehicle: Klucel (hydroxypropylcellulose) (HPC)
[17] = dose: 200.0 mg/kg/injection, schedule: Q01DX001 (ip), vehicle: Klucel (hydroxypropylcellulose) (HPC)
[18] = dose: 400.0 mg/kg/injection, schedule: Q01DX001 (ip), vehicle: Klucel (hydroxypropylcellulose) (HPC)
[19] = dose: 100.0 mg/kg/injection, schedule: Q01DX009 (ip), vehicle: Klucel (hydroxypropylcellulose) (HPC)
[20] = dose: 200.0 mg/kg/injection, schedule: Q01DX009 (ip), vehicle: Klucel (hydroxypropylcellulose) (HPC)
[21] = dose: 400.0 mg/kg/injection, schedule: Q01DX009 (ip), vehicle: Klucel (hydroxypropylcellulose) (HPC)

Measured: T/C

OCCNCc1ccc(O)cc1
inactive: dose: 100.0 mg/kg/injection, schedule: Q01DX009 (ip), vehicle: water 100 % of control | dose: 100.0 mg/kg/injection, schedule: Q04DX003 (ip), vehicle: water 103 % of control | dose: 200.0 mg/kg/injection, schedule: Q01DX009 (ip), vehicle: water 105 % of control | dose: 200.0 mg/kg/injection, schedule: Q04DX003 (ip), vehicle: water 103 % of control | dose: 400.0 mg/kg/injection, schedule: Q01DX009 (ip), vehicle: water 102 % of control | dose: 400.0 mg/kg/injection, schedule: Q04DX003 (ip), vehicle: water 103 % of control

O=[N+]([O-])c1ccc2n[nH]c(Cl)c2c1
inactive: [1] 95 % of control | [2] 95 % of control | [3] 94 % of control

COC1CC2c3ccccc3C1C(C)=[N+]2C (stereo not drawn)
inactive: [4] 97 % of control | [5] 101 % of control | dose: 100.0 mg/kg/injection, schedule: Q04DX003 (ip), vehicle: saline 102 % of control | [6] 100 % of control | dose: 200.0 mg/kg/injection, schedule: Q04DX003 (ip), vehicle: saline 97 % of control | dose: 400.0 mg/kg/injection, schedule: Q04DX003 (ip), vehicle: saline 102 % of control

O=C1N(Br)C(=O)C(c2ccc(Cl)cc2)(c2ccc(Cl)cc2)N1Br
inactive: dose: 15.0 mg/kg/injection, schedule: Q01DX015 (ip), vehicle: carboxymethylcellulose (CMC) 89 % of control | dose: 30.0 mg/kg/injection, schedule: Q01DX015 (ip), vehicle: carboxymethylcellulose (CMC) 93 % of control | dose: 60.0 mg/kg/injection, schedule: Q01DX015 (ip), vehicle: carboxymethylcellulose (CMC) 88 % of control | [7] 95 % of control | dose: 100.0 mg/kg/injection, schedule: Q01DX009 (ip), vehicle: saline sonified 113 % of control | [8] 99 % of control | dose: 120.0 mg/kg/injection, schedule: Q01DX015 (ip), vehicle: carboxymethylcellulose (CMC) 93 % of control | [9] 90 % of control | dose: 200.0 mg/kg/injection, schedule: Q01DX009 (ip), vehicle: saline sonified 106 % of control | [10] 94 % of control | dose: 240.0 mg/kg/injection, schedule: Q01DX015 (ip), vehicle: carboxymethylcellulose (CMC) 95 % of control | dose: 360.0 mg/kg/injection, schedule: Q01DX015 (ip), vehicle: carboxymethylcellulose (CMC) 98 % of control | [11] 104 % of control | dose: 400.0 mg/kg/injection, schedule: Q01DX009 (ip), vehicle: saline sonified 99 % of control | [12] 100 % of control

COc1ccc(OC)c(OC)c1CC(C)N (stereo not drawn)
inactive: dose: 25.0 mg/kg/injection, schedule: Q01DX009 (ip), vehicle: saline 108 % of control | [4] 104 % of control

O=C(O)C(CS(=O)(=O)O)Nc1ncnc2nc[nH]c12 (stereo not drawn)
inactive: [1] 93 % of control | [2] 98 % of control | [3] 98 % of control

O=C(NC(=S)N1CCCC1)c1ccccc1
inactive: [13] 96 % of control | [14] 107 % of control | [15] 96 % of control

CCCCCCCCCCCCCCCCSCCOC(=O)C1C2CCC(O2)C1C(=O)O (stereo not drawn)
inactive: dose: 12.5 mg/kg/injection, schedule: Q01DX001 (ip), vehicle: Klucel (hydroxypropylcellulose) (HPC) 107 % of control | dose: 25.0 mg/kg/injection, schedule: Q01DX001 (ip), vehicle: Klucel (hydroxypropylcellulose) (HPC) 101 % of control | dose: 50.0 mg/kg/injection, schedule: Q01DX001 (ip), vehicle: Klucel (hydroxypropylcellulose) (HPC) 98 % of control

CCOC(=O)c1cnc(C)nc1N
inactive: [16] 97 % of control | [17] 97 % of control | [18] 92 % of control

CCOC(=O)CCc1c(C)[nH]c(C(=O)OCC)c1C
inactive: [16] 98 % of control | [8] 92 % of control | [17] 97 % of control | [18] 97 % of control | [12] 108 % of control

CCCCN1C(c2ccccc2)=CN(Cc2ccccc2)C=C1c1ccccc1
inactive: [13] 106 % of control | [14] 110 % of control | [15] 103 % of control

Oc1ccc2ccccc2c1C=NCC1CCC(CN=Cc2c(O)ccc3ccccc23)CC1 (stereo not drawn)
inactive: [1] 91 % of control | [2] 95 % of control | [3] 88 % of control

O=[N+]([O-])/C=C/c1ccc2ccccc2n1
inactive: dose: 6.25 mg/kg/injection, schedule: Q01DX009 (ip), vehicle: saline with Tween-80 97 % of control | dose: 12.5 mg/kg/injection, schedule: Q01DX009 (ip), vehicle: saline with Tween-80 97 % of control | dose: 50.0 mg/kg/injection, schedule: Q01DX009 (ip), vehicle: saline with Tween-80 87 % of control | dose: 100.0 mg/kg/injection, schedule: Q04DX003 (ip), vehicle: saline with Tween-80 93 % of control | dose: 200.0 mg/kg/injection, schedule: Q04DX003 (ip), vehicle: saline with Tween-80 95 % of control

CC1=NNC(c2ccco2)C1 (stereo not drawn)
inactive: [1] 91 % of control | [2] 94 % of control | [3] 100 % of control

CC(C)(C)OC(=O)C(=[N+]=[N-])C(=O)OC(C)(C)C
inactive: [16] 97 % of control | [19] 102 % of control | [8] 98 % of control | [17] 97 % of control | [20] 105 % of control | [10] 104 % of control | [18] 90 % of control | [21] 105 % of control | [12] 104 % of control

O=C(O)CCCCCCCCCCCCCCC(=O)O
inactive: [13] 93 % of control and 97 % of control | [14] 101 % of control | [15] 93 % of control and 101 % of control

O=c1[nH]c2ccccc2c(=O)n1CCCN1CCN(c2cccc(Cl)c2)CC1
inactive: [19] 108 % of control | [13] 111 % of control | [20] 108 % of control | [14] 114 % of control | [21] 108 % of control | [15] 104 % of control

CC(C)(C)Sc1nc2ccccc2s1
inactive: dose: 25.0 mg/kg/injection, schedule: Q04DX002 (ip), vehicle: saline with Tween-80 93 % of control | dose: 50.0 mg/kg/injection, schedule: Q04DX002 (ip), vehicle: saline with Tween-80 93 % of control | dose: 100.0 mg/kg/injection, schedule: Q04DX002 (ip), vehicle: saline with Tween-80 96 % of control | dose: 200.0 mg/kg/injection, schedule: Q04DX002 (ip), vehicle: saline with Tween-80 105 % of control and 119 % of control | dose: 400.0 mg/kg/injection, schedule: Q04DX002 (ip), vehicle: saline with Tween-80 107 % of control

O=c1cnn(C2OC(CO)C(O)C2O)c(=S)[nH]1 (stereo not drawn)
inactive: dose: 100.0 mg/kg/injection, schedule: Q01DX005 (ip), vehicle: saline 113 % of control | [5] 124 % of control | dose: 200.0 mg/kg/injection, schedule: Q01DX005 (ip), vehicle: saline 108 % of control | [6] 123 % of control | dose: 400.0 mg/kg/injection, schedule: Q01DX009 (ip), vehicle: saline 117 % of control

CCCCCCCNC1=C(C)C(=O)C(NCCCCCCC)=C(C)C1=O
inactive: [7] 96 % of control | [1] 93 % of control | [9] 96 % of control | [2] 96 % of control | [11] 89 % of control | [3] 93 % of control

O=C(Nc1csnn1)c1ccco1
inactive: dose: 50.0 mg/kg/injection, schedule: Q01DX001 (ip), vehicle: other 104 % of control | dose: 100.0 mg/kg/injection, schedule: Q01DX001 (ip), vehicle: other 115 % of control | dose: 200.0 mg/kg/injection, schedule: Q01DX001 (ip), vehicle: other 104 % of control | dose: 400.0 mg/kg/injection, schedule: Q01DX001 (ip), vehicle: other 110 % of control

CCCCNN
inactive: dose: 75.0 mg/kg/injection, schedule: Q01DX001 (ip), vehicle: other 96 % of control | dose: 150.0 mg/kg/injection, schedule: Q01DX001 (ip), vehicle: other 113 % of control
